In patent US7534444B2, “Molecular mimetics of meningococcal B epitopes which elicit functionally active antibodies” (priority 2001, dated 2009):
Ends that are not written are not given here.

Assays:
anti-GNA33 mAb 25 = assay: Peptide binding assay with cellulose-bound spot-synthesised peptides; set-up: species or system mouse; conditions: for Dye Units (binding of anti-GNA33 mAb 25): mAb 25 6 μg/ml; for Relative Binding (of anti-GNA33 mAb 25): alanine substitution of PorA loop 4 VR type P1.2-2 10-mer
Description: Peptide spot synthesis was carried out on amino-PEG-cellulose membranes (ABIMED, Langerfeld, Germany) using a model ASP 222 automated spot synthesizer (ABIMED) and diisopropylcarbodiimide (DIC)/N-hydroxybenzotriazole (HOBt) activation (Frank and Overwin, Methods Mol. Biol. (1996) 66:149-169). In situ-prepared 0.2 M HOBt esters of fluorenylmethoxycarbonyl (Fmoc)-amino acid derivatives were used for the coupling reaction. […] After the final cycle, all the peptides were N-terminally acetylated with 2% acetic anhydride. At the end of the synthesis, the side-chain protecting groups were removed using a mixture of trifluoroacetic acid/triisobutylsilane/water/dichloromethane (50/3/2/45).
Cellulose-bound peptides were soaked in ethanol to prevent hydrophobic interactions between the peptides. Non-specific binding was blocked by incubating cellulose sheets overnight at 4° C. with 10 ml of 2% casein in Tris buffered saline (TBS: 50 mM Tris-HCl, 137 mM NaCl, […], pH 7.0), containing 0.05% TWEEN® 20 (T-TBS). The sheets were incubated for 2 hr at 37° C. with the anti-GNA33 mAb 25 (6 μg/ml) or an anti-PorA 1.2 mAb diluted 1:100 in T-TBS blocking buffer. Alkaline phosphatase-conjugated goat anti-mouse IgG (BioRad) was then added at 1:3000 dilution in T-TBS blocking buffer for 1 hr at 37° C. Sheets were washed three times with T-TBS and detection of binding was achieved by incubating the sheets with bromo-4-chloro-3-indolyl-phosphate (BCIP) (Sigma, Steinheim, Germany) and […] in substrate buffer (100 mM Tris, pH 8.9, 100 mM NaCl, 2 mM MgCl2). Quantitative evaluation of the signal was obtained using a Umax Speedy II 2200 optical scanner.

[1] = target: PorA of N. meningitidis strain 2996 (B:2b:P1.5,2) (Neisseria meningitidis serogroup B strain 2996); assay: cell-based or functional assay
[2] = target: PorA of N. meningitidis strain 8047 (B:2b:P1.5,2) (Neisseria meningitidis serogroup B strain 8047); assay: cell-based or functional assay
[3] = target: PorA of N. meningitidis strain BZ232 (B:NT:P1.2) (Neisseria meningitidis serogroup B strain BZ232); assay: cell-based or functional assay
[4] = target: PorA of N. meningitidis strain M3735 (B:NT:P1.5,2) (Neisseria meningitidis serogroup B strain M3735); assay: cell-based or functional assay
[5] = target: PorA of N. meningitidis strain M5545 (B:NT:P1.5,2) (Neisseria meningitidis serogroup B strain M5545); assay: cell-based or functional assay
[6] = target: PorA of N. meningitidis strain M5682 (B:2a:P1.5,2) (Neisseria meningitidis serogroup B strain M5682); assay: cell-based or functional assay
[7] = target: PorA of N. meningitidis strain M5954 (C:2a:P1.2) (Neisseria meningitidis serogroup C strain M5954); assay: cell-based or functional assay
[8] = target: PorA of N. meningitidis strain M986 (B:2a:P1.5,2) (Neisseria meningitidis serogroup B strain M986); assay: cell-based or functional assay
[9] = target: PorA of N. meningitidis strain NMB (B:2b:P1.5,2) (Neisseria meningitidis serogroup B strain NMB); assay: cell-based or functional assay
[10] = tested on: P1.2 epitope of PorA loop 4; assay: Immunization of CD1 mice with rGNA33 in Freund's adjuvant; assay type: in vivo; conditions: recombinant protein simply mixed with Freund's adjuvant, without renaturation
Description: In order to prepare antisera against GNA33, 20 μg of purified HT-GNA33 or untagged rGNA33 was used to immunize six-week old CD1 female mice (four to ten mice per group). The mice were obtained from Charles River (Italia S.P.A., Calco, Italy, or Hollister, Calif.). The recombinant protein was given i.p, together with complete Freund's adjuvant (CFA) for the first dose and incomplete Freund's adjuvant (IFA) for the second (day 21) and third (day 35) booster doses. Blood samples were taken on days 34 and 49.

[11] = tested on: encapsulated MenB strain 2996; conditions: mice immunized; measured against encapsulated MenB strain 2996; cited from earlier work
[12] = overlapping decapeptides from loop 4 of PorA P1.2 (strain 2996)
[13] = overlapping decapeptides from GNA33

Molecule | Dye Units (binding of anti-GNA33 mAb 25) (anti-GNA33 mAb 25; [12]) [Dye Units] | Dye Units (binding of anti-GNA33 mAb 25) (anti-GNA33 mAb 25; [13]) [Dye Units] | also measured
FVQQTPQSQP (Ac-FVQQTPQSQP) | 9 | – | –
QQTPQSQPTL (Ac-QQTPQSQPTL) | 0 | – | –
PAH FVQ QTA Q (Ac-PAHFVQQTAQ) | – | – | Relative Binding (of anti-GNA33 mAb 25) (anti-GNA33 mAb 25): 0
YTPAHFVQQT (Ac-YTPAHFVQQT) | 0 | – | –
QTPVHSFQAK | – | 19 | –
PAH FAQ QTP Q (Ac-PAHFAQQTPQ) | – | – | Relative Binding (of anti-GNA33 mAb 25) (anti-GNA33 mAb 25): 4
QTPQSQPTLV (Ac-QTPQSQPTLV) | 2 | – | –
PAH FVQ ATP Q (Ac-PAHFVQATPQ) | – | – | Relative Binding (of anti-GNA33 mAb 25) (anti-GNA33 mAb 25): 0
QAFQTPVHSF | – | 30 | –
FQTPVHSFQA | – | 22 | –
SAQAFQTPVH | – | 29 | –
PAH FVQ QAP Q (Ac-PAHFVQQAPQ) | – | – | Relative Binding (of anti-GNA33 mAb 25) (anti-GNA33 mAb 25): 0
TPQSQPTVP | 2 | – | –
AQAFQTPVHS | – | 30 | –
VQQTPQSQPT (Ac-VQQTPQSQPT) | 4 | – | –
AFQTPVHSFQ | – | 24 | –

Molecule | Dye Units (binding of anti-GNA33 mAb 25) (anti-GNA33 mAb 25; [12]) [Dye Units] | Dye Units (binding of anti-GNA33 mAb 25) (anti-GNA33 mAb 25; [13]) [Dye Units] | also measured
PGH FVQ QTP Q (Ac-PGHFVQQTPQ) | – | – | Relative Binding (of anti-GNA33 mAb 25) (anti-GNA33 mAb 25): 8
TPVHSFQAKQ | – | 2 | –
PAA FVQ QTP Q (Ac-PAAFVQQTPQ) | – | – | Relative Binding (of anti-GNA33 mAb 25) (anti-GNA33 mAb 25): 8
AHFVQQTPQS (Ac-AHFVQQTPQS) | 14 | – | –
PAHFVQQTPQ (Ac-PAHFVQQTPQ) | 10 | – | –
VSAQAFQTPV | – | 27 | –
PAH AVQ QTP Q (Ac-PAHAVQQTPQ) | – | – | Relative Binding (of anti-GNA33 mAb 25) (anti-GNA33 mAb 25): 1
TPAHFVQQTP | 8 | – | –
PAK FVQ QTP A (PAHFVQQTPA) | – | – | Relative Binding (of anti-GNA33 mAb 25) (anti-GNA33 mAb 25): 2
HFVQQTPQSQ (Ac-HFVQQTPQSQ) | 15 | – | –
DVSAQAFQTP | – | 23 | –
PAH FVA QTP Q (Ac-PAHFVAQTPQ) | – | – | Relative Binding (of anti-GNA33 mAb 25) (anti-GNA33 mAb 25): 2
meningococcal Por A P1.2-specific subtyping mAb (MN16C13F4, subclass IgG2a) (antibody) | – | – | BC50, human complement [1]: < 0.5 µg/mL; BC50, human complement [2]: < 0.5 µg/mL; BC50, human complement [3]: < 0.5 µg/mL; BC50, human complement [4]: < 0.5 µg/mL; BC50, human complement [5]: < 0.5 µg/mL; BC50, human complement [6]: < 0.5 µg/mL; BC50, human complement [7]: < 0.5 µg/mL; BC50, human complement [8]: < 0.5 µg/mL; BC50, human complement [9]: < 0.5 µg/mL
QDVSAQAFQT | – | 0 | –
rGNA33: recombinant GNA33 of strain 2996, soluble protein without signal and lipid modification sequences (protein) MKKYLFRAALCGIAAAILAACQSKSIQTFPQPDTSVINGPDRPVGIPDPAGTTVGGGGAVYTVVPHLSLPHWAAQDFAKSLQSFRLGCANLKNRQGWQDVCAQAFQTPVHSVQAKQFFERYFTPWQVAGNGSLAGTVTGYYEPVLKGDDRRTAQARFPIYGIPDDFISVPLPAGLRSGKALVRIRQTGKNSGTIDNTGGTHTADLSQFPITARTTAIKGRFEGSRFLPYHTRNQINGGALDGKAPILGYAEDPVELFFMHIQGSGRLKTPSGKYIRIGYADKNEHPYVSIGRYMADKGYLKLGQTSMQGIKAYMQQNPQRLAEVLGQNPSYIFFRELTGSSNDGPVGALGTPLMGEYAGAVDRHYITLGAPLFVATAHPVTRKALNRLIMAQDTGSAIKGAVRVDYFWGYGDEAGELAGKQKTTGYVWQLLPNGMKPEYRP | – | – | antibody elicited by immunization [10]: elicited bactericidal antibody; serum bactericidal antibody titers [11]: high
